Experimental data as given in the kinase profiling compilation of Christmann-Franck et al. (2016).

What was measured:
Assay in all cases: radiometric filter-binding kinase assay, Kinase HotSpot
Details in all cases: compound 0.5 µM; ATP 10 µM
STK11 (human) = STK11 (human) (UniProt Q15831)
SRC (human) = SRC (human) (UniProt P12931)
CAMK2B (human) = CAMK2B (human) (UniProt Q13554)
IGF1R (human) = IGF1R (human) (UniProt P08069)
MINK1 (human) = MINK1 (human) (UniProt Q8N4C8)
MAP3K9 (human) = MAP3K9 (human) (UniProt P80192)
MAP4K4 (human) = MAP4K4 (human) (UniProt O95819)
Sequence of MAP4K4 (human) (O95819 whole entry, looked up): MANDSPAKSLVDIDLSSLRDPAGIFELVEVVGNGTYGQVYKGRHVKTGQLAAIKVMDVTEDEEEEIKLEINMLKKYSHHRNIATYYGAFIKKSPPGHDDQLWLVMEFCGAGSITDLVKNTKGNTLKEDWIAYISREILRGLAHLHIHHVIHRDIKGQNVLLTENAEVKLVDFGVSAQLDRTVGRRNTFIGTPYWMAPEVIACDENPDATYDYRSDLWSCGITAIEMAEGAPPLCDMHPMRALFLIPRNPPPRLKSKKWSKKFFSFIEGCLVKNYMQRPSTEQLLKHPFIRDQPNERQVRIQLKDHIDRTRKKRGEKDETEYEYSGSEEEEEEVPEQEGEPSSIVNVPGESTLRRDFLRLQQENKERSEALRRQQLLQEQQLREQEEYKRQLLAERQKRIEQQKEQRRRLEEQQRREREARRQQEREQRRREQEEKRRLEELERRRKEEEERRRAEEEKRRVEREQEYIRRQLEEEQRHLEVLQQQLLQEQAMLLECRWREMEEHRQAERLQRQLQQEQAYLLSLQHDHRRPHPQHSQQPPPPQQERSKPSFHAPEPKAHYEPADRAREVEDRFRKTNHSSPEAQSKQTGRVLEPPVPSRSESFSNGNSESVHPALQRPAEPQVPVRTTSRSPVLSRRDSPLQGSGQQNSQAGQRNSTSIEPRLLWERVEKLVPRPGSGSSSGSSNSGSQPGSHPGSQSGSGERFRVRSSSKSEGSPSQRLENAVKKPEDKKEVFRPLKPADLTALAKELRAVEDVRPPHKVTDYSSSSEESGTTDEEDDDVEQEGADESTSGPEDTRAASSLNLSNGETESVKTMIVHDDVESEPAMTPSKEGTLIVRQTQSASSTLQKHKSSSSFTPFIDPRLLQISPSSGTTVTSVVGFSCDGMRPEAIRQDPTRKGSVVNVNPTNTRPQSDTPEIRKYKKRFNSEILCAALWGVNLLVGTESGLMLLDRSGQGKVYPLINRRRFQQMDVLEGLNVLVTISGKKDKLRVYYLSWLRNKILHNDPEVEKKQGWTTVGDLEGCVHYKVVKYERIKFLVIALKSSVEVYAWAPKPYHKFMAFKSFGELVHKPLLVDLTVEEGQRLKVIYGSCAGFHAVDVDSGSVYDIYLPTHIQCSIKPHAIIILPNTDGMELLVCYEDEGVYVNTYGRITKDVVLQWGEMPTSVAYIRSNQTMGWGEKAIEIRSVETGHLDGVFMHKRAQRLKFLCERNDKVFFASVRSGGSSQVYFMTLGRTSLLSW

AKT3 (human) = AKT3 (human) (UniProt Q9Y243)
ADRBK2 (human) = ADRBK2 (human) (UniProt P35626)
STK17A (human) = STK17A (human) (UniProt Q9UEE5)
PRKCG (human) = PRKCG (human) (UniProt P05129)
EPHA1 (human) = EPHA1 (human) (UniProt P21709)
MET (human) = MET (human) (UniProt P08581)
DCLK2 (human) = DCLK2 (human) (UniProt Q8N568)
CDK6 CCND1 (human) = CDK6 CCND1 (human) (UniProt Q00534+P24385)
NLK (human) = NLK (human) (UniProt Q9UBE8)
MAP3K11 (human) = MAP3K11 (human) (UniProt Q16584)
MUSK (human) = MUSK (human) (UniProt O15146)
RPS6KA5 KD2 (human) = RPS6KA5 KD2 (human) (UniProt O75582)
ERBB2 (human) = ERBB2 (human) (UniProt P04626)
GRK5 (human) = GRK5 (human) (UniProt P34947)
MAPK13 (human) = MAPK13 (human) (UniProt O15264)
DAPK2 (human) = DAPK2 (human) (UniProt Q9UIK4)
LCK (human) = LCK (human) (UniProt P06239)
TEK (human) = TEK (human) (UniProt Q02763)
INSR (human) = INSR (human) (UniProt P06213)
SRPK2 (human) = SRPK2 (human) (UniProt P78362)
MAP3K7 TAB1 (human) = MAP3K7 TAB1 (human) (UniProt O43318+Q15750)
MAP3K2 (human) = MAP3K2 (human) (UniProt Q9Y2U5)
PRKCB2 (human) = PRKCB2 (human) (UniProt P05771)
STK4 (human) = STK4 (human) (UniProt Q13043)
Sequence of STK4 (human) (Q13043 whole entry, looked up): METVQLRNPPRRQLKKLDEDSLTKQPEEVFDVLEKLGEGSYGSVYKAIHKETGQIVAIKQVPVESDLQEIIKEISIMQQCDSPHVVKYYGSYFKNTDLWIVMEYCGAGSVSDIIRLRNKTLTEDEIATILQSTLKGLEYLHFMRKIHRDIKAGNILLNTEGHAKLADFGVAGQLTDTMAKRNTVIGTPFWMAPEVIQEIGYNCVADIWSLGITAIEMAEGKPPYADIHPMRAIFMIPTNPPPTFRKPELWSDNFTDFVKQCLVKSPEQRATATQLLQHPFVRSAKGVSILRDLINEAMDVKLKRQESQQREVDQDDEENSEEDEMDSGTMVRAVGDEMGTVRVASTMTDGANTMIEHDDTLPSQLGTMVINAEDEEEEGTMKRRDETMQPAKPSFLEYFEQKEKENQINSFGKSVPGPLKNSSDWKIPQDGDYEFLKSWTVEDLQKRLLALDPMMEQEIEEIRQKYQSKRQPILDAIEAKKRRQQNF

PRKD2 (human) = PRKD2 (human) (UniProt Q9BZL6)
NTRK2 (human) = NTRK2 (human) (UniProt Q16620)
PAK1 (human) = PAK1 (human) (UniProt Q13153)
DSTYK (human) = DSTYK (human) (UniProt Q6XUX3)
CLK2 (human) = CLK2 (human) (UniProt P49760)
MYLK (human) = MYLK (human) (UniProt Q15746)
Sequence of MYLK (human) (Q15746 whole entry, looked up): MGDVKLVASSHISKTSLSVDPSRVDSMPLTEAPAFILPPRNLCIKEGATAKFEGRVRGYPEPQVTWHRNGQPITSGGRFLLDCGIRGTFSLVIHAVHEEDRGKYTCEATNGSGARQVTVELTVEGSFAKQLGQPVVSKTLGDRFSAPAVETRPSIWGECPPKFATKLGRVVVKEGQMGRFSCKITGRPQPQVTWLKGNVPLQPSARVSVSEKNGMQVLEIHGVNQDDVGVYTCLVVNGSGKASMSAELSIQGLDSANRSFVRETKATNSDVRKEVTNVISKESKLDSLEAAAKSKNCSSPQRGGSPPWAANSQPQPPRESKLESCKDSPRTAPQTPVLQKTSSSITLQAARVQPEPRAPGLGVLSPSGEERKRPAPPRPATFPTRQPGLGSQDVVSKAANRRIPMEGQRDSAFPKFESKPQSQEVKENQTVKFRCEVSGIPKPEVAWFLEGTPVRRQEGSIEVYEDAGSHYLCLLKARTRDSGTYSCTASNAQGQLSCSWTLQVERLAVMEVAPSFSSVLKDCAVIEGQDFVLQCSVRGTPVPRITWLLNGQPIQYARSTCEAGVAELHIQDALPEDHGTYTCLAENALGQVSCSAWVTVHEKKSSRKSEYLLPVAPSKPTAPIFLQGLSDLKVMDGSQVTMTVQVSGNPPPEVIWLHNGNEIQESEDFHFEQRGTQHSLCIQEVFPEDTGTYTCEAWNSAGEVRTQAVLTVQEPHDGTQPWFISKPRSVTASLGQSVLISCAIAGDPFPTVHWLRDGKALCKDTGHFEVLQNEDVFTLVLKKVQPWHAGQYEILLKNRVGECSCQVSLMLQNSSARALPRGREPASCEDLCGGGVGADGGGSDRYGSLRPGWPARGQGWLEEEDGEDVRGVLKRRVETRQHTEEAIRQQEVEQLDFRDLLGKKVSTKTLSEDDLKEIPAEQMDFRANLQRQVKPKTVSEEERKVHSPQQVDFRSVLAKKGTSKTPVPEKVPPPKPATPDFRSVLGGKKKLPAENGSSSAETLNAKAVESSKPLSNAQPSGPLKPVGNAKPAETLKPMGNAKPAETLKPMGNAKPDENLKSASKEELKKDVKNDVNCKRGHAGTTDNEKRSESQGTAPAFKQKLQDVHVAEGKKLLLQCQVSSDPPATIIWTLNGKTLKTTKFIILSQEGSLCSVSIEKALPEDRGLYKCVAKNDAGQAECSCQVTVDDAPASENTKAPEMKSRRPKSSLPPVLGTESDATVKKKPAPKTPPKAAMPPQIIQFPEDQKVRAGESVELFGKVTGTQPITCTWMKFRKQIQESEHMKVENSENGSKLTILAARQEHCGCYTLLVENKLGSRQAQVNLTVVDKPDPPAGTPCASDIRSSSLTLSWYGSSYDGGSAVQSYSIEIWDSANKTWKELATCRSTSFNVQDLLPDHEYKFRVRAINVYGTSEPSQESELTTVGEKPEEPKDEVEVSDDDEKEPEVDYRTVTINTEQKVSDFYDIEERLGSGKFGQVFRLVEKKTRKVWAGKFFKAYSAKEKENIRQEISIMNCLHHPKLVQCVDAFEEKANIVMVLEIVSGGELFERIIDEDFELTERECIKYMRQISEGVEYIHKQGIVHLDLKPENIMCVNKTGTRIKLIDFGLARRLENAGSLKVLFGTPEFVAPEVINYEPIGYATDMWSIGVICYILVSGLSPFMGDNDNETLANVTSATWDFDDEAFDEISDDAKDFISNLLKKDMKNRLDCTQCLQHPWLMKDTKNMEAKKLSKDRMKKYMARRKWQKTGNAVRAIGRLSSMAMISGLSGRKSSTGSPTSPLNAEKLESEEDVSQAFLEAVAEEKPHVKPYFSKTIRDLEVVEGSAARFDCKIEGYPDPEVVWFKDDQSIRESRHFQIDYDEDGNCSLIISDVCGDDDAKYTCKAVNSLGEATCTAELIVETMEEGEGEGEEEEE

STK39 (human) = STK39 (human) (UniProt Q9UEW8)
MARK1 (human) = MARK1 (human) (UniProt Q9P0L2)
STK38 (human) = STK38 (human) (UniProt Q15208)
NTRK3 (human) = NTRK3 (human) (UniProt Q16288)
WNK2 (human) = WNK2 (human) (UniProt Q9Y3S1)

Sequence of STK11 (human) (Q15831 whole entry, looked up): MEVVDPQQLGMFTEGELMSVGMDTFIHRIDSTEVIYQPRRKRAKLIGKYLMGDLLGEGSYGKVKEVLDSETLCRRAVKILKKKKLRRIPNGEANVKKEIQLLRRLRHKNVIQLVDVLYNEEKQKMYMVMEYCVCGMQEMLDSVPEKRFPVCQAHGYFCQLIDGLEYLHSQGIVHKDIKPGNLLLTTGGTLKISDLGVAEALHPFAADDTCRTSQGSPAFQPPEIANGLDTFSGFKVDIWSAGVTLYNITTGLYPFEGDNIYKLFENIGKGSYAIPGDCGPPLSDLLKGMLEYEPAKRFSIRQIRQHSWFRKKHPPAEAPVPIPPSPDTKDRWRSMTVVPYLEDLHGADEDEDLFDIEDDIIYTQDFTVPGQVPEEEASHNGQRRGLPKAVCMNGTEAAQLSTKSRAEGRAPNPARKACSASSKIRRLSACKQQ

CNc1cc2c(Nc3cccc(Br)c3)ncnc2cn1
residual activity (STK11 (human)): 98.3% | residual activity (SRC (human)): 94.6% | residual activity (CAMK2B (human)): 95.8% | residual activity (IGF1R (human)): 115% | residual activity (MINK1 (human)): 91.9% | residual activity (MAP3K9 (human)): 94.4% | residual activity (MAP4K4 (human)): 86.9% | residual activity (AKT3 (human)): 103% | residual activity (ADRBK2 (human)): 101% | residual activity (STK17A (human)): 98.4% | residual activity (PRKCG (human)): 105% | residual activity (EPHA1 (human)): 103% | residual activity (MET (human)): 106% | residual activity (DCLK2 (human)): 90.4% | residual activity (CDK6 CCND1 (human)): 82.2% | residual activity (NLK (human)): 84.3% | residual activity (MAP3K11 (human)): 96.9% | residual activity (MUSK (human)): 81.3% | residual activity (RPS6KA5 KD2 (human)): 92.3% | residual activity (ERBB2 (human)): 28.9% | residual activity (GRK5 (human)): 120% | residual activity (MAPK13 (human)): 102% | residual activity (DAPK2 (human)): 136% | residual activity (LCK (human)): 96.7% | residual activity (TEK (human)): 87.9% | residual activity (INSR (human)): 100% | residual activity (SRPK2 (human)): 89.4% | residual activity (MAP3K7 TAB1 (human)): 94.9% | residual activity (MAP3K2 (human)): 74.9% | residual activity (PRKCB2 (human)): 102% | residual activity (STK4 (human)): 95.4% | residual activity (PRKD2 (human)): 86.4% | residual activity (NTRK2 (human)): 94.3% | residual activity (PAK1 (human)): 94.9% | residual activity (DSTYK (human)): 94.1% | residual activity (CLK2 (human)): 88.3% | residual activity (MYLK (human)): 79.5% | residual activity (STK39 (human)): 94% | residual activity (MARK1 (human)): 96.1% | residual activity (STK38 (human)): 98.5% | residual activity (NTRK3 (human)): 72.7% | residual activity (WNK2 (human)): 114%

Nc1ccc2ncnc(NCCc3ccc(Oc4ccccc4)cc3)c2c1
residual activity (STK11 (human)): 97.6% | residual activity (SRC (human)): 102% | residual activity (CAMK2B (human)): 95.1% | residual activity (IGF1R (human)): 99.7% | residual activity (MINK1 (human)): 95.4% | residual activity (MAP3K9 (human)): 103% | residual activity (MAP4K4 (human)): 99.2% | residual activity (AKT3 (human)): 104% | residual activity (ADRBK2 (human)): 97.9% | residual activity (STK17A (human)): 96.9% | residual activity (PRKCG (human)): 95.2% | residual activity (EPHA1 (human)): 86.6% | residual activity (MET (human)): 99.9% | residual activity (DCLK2 (human)): 99.1% | residual activity (CDK6 CCND1 (human)): 101% | residual activity (NLK (human)): 104% | residual activity (MAP3K11 (human)): 103% | residual activity (MUSK (human)): 102% | residual activity (RPS6KA5 KD2 (human)): 98.3% | residual activity (ERBB2 (human)): 108% | residual activity (GRK5 (human)): 98% | residual activity (MAPK13 (human)): 100% | residual activity (DAPK2 (human)): 80.4% | residual activity (LCK (human)): 98.3% | residual activity (TEK (human)): 99% | residual activity (INSR (human)): 103% | residual activity (SRPK2 (human)): 95.3% | residual activity (MAP3K7 TAB1 (human)): 96.2% | residual activity (MAP3K2 (human)): 98.4% | residual activity (PRKCB2 (human)): 104% | residual activity (STK4 (human)): 95.8% | residual activity (PRKD2 (human)): 98.2% | residual activity (NTRK2 (human)): 104% | residual activity (PAK1 (human)): 94.9% | residual activity (DSTYK (human)): 101% | residual activity (CLK2 (human)): 83% | residual activity (MYLK (human)): 98.5% | residual activity (STK39 (human)): 83.9% | residual activity (MARK1 (human)): 103% | residual activity (STK38 (human)): 97.9% | residual activity (NTRK3 (human)): 98.4% | residual activity (WNK2 (human)): 96.7%

O=C1NC(=O)/C(=C/c2ccc3c(c2)OC(F)(F)O3)S1
residual activity (STK11 (human)): 96.9% | residual activity (SRC (human)): 98.4% | residual activity (CAMK2B (human)): 99.8% | residual activity (IGF1R (human)): 101% | residual activity (MINK1 (human)): 90.1% | residual activity (MAP3K9 (human)): 101% | residual activity (MAP4K4 (human)): 95.3% | residual activity (AKT3 (human)): 103% | residual activity (ADRBK2 (human)): 102% | residual activity (STK17A (human)): 90.4% | residual activity (PRKCG (human)): 101% | residual activity (EPHA1 (human)): 90.2% | residual activity (MET (human)): 96.2% | residual activity (DCLK2 (human)): 99.7% | residual activity (CDK6 CCND1 (human)): 95.4% | residual activity (NLK (human)): 93.8% | residual activity (MAP3K11 (human)): 97.8% | residual activity (MUSK (human)): 70.9% | residual activity (RPS6KA5 KD2 (human)): 91.1% | residual activity (ERBB2 (human)): 102% | residual activity (GRK5 (human)): 105% | residual activity (MAPK13 (human)): 101% | residual activity (DAPK2 (human)): 105% | residual activity (LCK (human)): 98.3% | residual activity (TEK (human)): 91.9% | residual activity (INSR (human)): 106% | residual activity (SRPK2 (human)): 105% | residual activity (MAP3K7 TAB1 (human)): 95.3% | residual activity (MAP3K2 (human)): 94% | residual activity (PRKCB2 (human)): 97.6% | residual activity (STK4 (human)): 93.3% | residual activity (PRKD2 (human)): 91.5% | residual activity (NTRK2 (human)): 91.9% | residual activity (PAK1 (human)): 93.3% | residual activity (DSTYK (human)): 89.3% | residual activity (CLK2 (human)): 96.6% | residual activity (MYLK (human)): 99.4% | residual activity (STK39 (human)): 110% | residual activity (MARK1 (human)): 97.2% | residual activity (STK38 (human)): 107% | residual activity (NTRK3 (human)): 98% | residual activity (WNK2 (human)): 113%
